Data as given in patent US10626116B2, “Crystalline form of BTK kinase inhibitor and preparation method thereof” (Jiangsu Hengrui Medicine Co., Ltd., priority 2016, dated 2020).

Tests used:
[1] = Special stability study of crystal form I (grinding, heating, tableting); type: physicochemical
Excerpt: Crystal form I of the compound of formula (I) prepared according to the method of Example 2 was ground, heated and tableted.

[2] = Stability under lighting, heating and high humidity; purity detected by HPLC; type: physicochemical; settings: for Purity by HPLC, 40° C.: heating 40° C.; for Purity by HPLC, 40° C. / Purity by HPLC, 60° C. / Purity by HPLC, RH 75% / Purity by HPLC, RH 90% / Purity by HPLC, Lighting: spread flat in the air; for Purity by HPLC, 60° C.: heating 60° C.; for Purity by HPLC, RH 75%: high humidity RH 75%; for Purity by HPLC, RH 90%: high humidity RH 90%; for Purity by HPLC, Lighting: lighting 4500 Lux
Description: The sample of amorphous form prepared in Example 1 and the sample of crystal form I prepared in Example 2 were spread flat in the air to test their stability under conditions of lighting (4500 Lux), heating (40° C., 60° C.), and high humidity (RH 75%, RH 90%), respectively. Samplings were carried out on Day 5 and Day 10.

[3] = Grinding treatment for 10 minutes in a mortar under nitrogen atmosphere, batch 20150427G
[4] = Heating treatment for 3 hours at 80° C., batch 20150427H
[5] = Tableting treatment, batch 20150427P

Structure (SMILES): CC#CC(=O)N1CC[C@@H](n2cc(-c3ccc(Oc4c(F)cccc4F)cc3)c3c(N)n[nH]c(=O)c32)C1 [Crystal form I, (R)-4-amino-1-(1-(but-2-ynoyl)pyrrolidin-3-yl)-3-(4-(2,6-difluorophenoxy)phenyl)-1H-pyrrolo[2,3-d]pyridazin-7(6H)-one]
- Crystal form after treatment [1, 3]: Crystal
- DSC peak after treatment [1, 3]: 239.32 °C
- Crystal form after treatment [1, 4]: Crystal
- DSC peak after treatment [1, 4]: 238.98 °C
- Crystal form after treatment [1, 5]: Crystal
- DSC peak after treatment [1, 5]: 241.19 °C
- Stability of the crystal form ([1]; ground, heated and tableted (grinding, pressure and heating)): stable
- Stability compared with the amorphous sample ([2]; conditions of lighting, high temperature and high humidity): significantly better than that of the amorphous sample
- Purity by HPLC, 40° C. ([2]; Day 0): 99.21%
- Purity by HPLC, 40° C. ([2]; Day 5): 99.28%
- Purity by HPLC, 40° C. ([2]; Day 10): 99.35%
- Purity by HPLC, 60° C. ([2]; Day 0): 99.21%
- Purity by HPLC, 60° C. ([2]; Day 5): 99.26%
- Purity by HPLC, 60° C. ([2]; Day 10): 99.25%
- Purity by HPLC, RH 75% ([2]; Day 0): 99.21%
- Purity by HPLC, RH 75% ([2]; Day 5): 99.30%
- Purity by HPLC, RH 75% ([2]; Day 10): 99.25%
- Purity by HPLC, RH 90% ([2]; Day 0): 99.21%
- Purity by HPLC, RH 90% ([2]; Day 5): 99.30%
- Purity by HPLC, RH 90% ([2]; Day 10): 99.32%
- Purity by HPLC, Lighting ([2]; Day 0): 99.21%
- Purity by HPLC, Lighting ([2]; Day 5): 99.26%
- Purity by HPLC, Lighting ([2]; Day 10): 99.25%

Structure (SMILES): CC#CC(=O)N1CC[C@@H](n2cc(-c3ccc(Oc4c(F)cccc4F)cc3)c3c(N)n[nH]c(=O)c32)C1 [Amorphous form, (R)-4-amino-1-(1-(but-2-ynoyl)pyrrolidin-3-yl)-3-(4-(2,6-difluorophenoxy)phenyl)-1H-pyrrolo[2,3-d]pyridazin-7(6H)-one]
- Purity by HPLC, 40° C. ([2]; Day 0): 97.70%
- Purity by HPLC, 40° C. ([2]; Day 5): 97.64%
- Purity by HPLC, 40° C. ([2]; Day 10): 97.57%
- Purity by HPLC, 60° C. ([2]; Day 0): 97.70%
- Purity by HPLC, 60° C. ([2]; Day 5): 97.68%
- Purity by HPLC, 60° C. ([2]; Day 10): 97.52%
- Purity by HPLC, RH 75% ([2]; Day 0): 97.70%
- Purity by HPLC, RH 75% ([2]; Day 5): 97.52%
- Purity by HPLC, RH 75% ([2]; Day 10): 97.59%
- Purity by HPLC, RH 90% ([2]; Day 0): 97.70%
- Purity by HPLC, RH 90% ([2]; Day 5): 97.50%
- Purity by HPLC, RH 90% ([2]; Day 10): 97.48%
- Purity by HPLC, Lighting ([2]; Day 0): 97.70%
- Purity by HPLC, Lighting ([2]; Day 5): 97.67%
- Purity by HPLC, Lighting ([2]; Day 10): 97.62%
